The subject of test [1] is lymphocyte count. The test can be described thus: Lymphocyte count in mice. It counts as in vivo. Conditions: 10 mg/kg p.o., blood at 4 hr, FIG. 2. The procedure:
A total of 6 mice were used in this study for each compound (Examples 1-6) and divided in two groups as Group 1 (vehicle, Dose: 10 mL/kg) and Group 2 (Compound, Dose: 10 mg/kg, p.o.). Animals in Group 1 were administered with vehicle. Animals in Group 2 were administered with solution formulation of PTC1566-1 at 10 mg/kg dose through oral route. Blood samples from Group 2 were collected under light isoflurane anesthesia from a set of three mice at 1 & 4 hr (p.o.) and from Group 1 blood samples were collected at 4 hr. Plasma was harvested by centrifugation of blood and stored at −70° C. until analysis. Brain was collected at 4 hr from Group 2 animals, weighed and transferred in a poly-propylene tube. Two volumes of PBS buffer (pH 7.4) was added and homogenized to get final volume of 3 times and stored below −70° C. until bioanalysis. Blood sample at 4 hr from both groups were used for lymphocyte count. Analysis Plasma and Brain samples were quantified by fit-for-purpose LCMS/MS method (LLOQ: 4.91 ng/mL for plasma and 14.73 ng/g for brain). For each of the six compounds tested, plasma concentration was greater than 2600 ng/mL at 1 hr and greater than 2100 ng/mL at 4 hr. For each of the six compounds tested, brain concentration was less than 200 ng/g. For each of the six compounds tested (Compound 15, Compound 18, Compound 19, Compound 16, Compound 11, and Compound 13), the lymphocyte count was less than 45% of control (FIG. 2).

For test [2], the target named is human S1P1 (Homo sapiens (Human), UniProt P21453). In words: GTPγS binding assay (scintillation proximity assay). It counts as biochemical. Particulars: S1P1 membrane from CHO-K1 Gαqi5 cells expressing full-length human S1P1; GTPγ35S SPA. Here is the method: S1P1 membrane is prepared from CHO-K1 Gαqi5 cells expression full-length human S1P1. Scintillation proximity assay (SPA) is performed by incubating membranes, GTPγ^35S, and compounds at various concentrations for 60 minutes. Wheat germ agglutinin-coated SPA beads are added and incubated for 60 minutes before centrifugation and scintillation counting.
(In general: Binding of GTPγS marks nucleotide exchange on a G protein.)

human S1P1, sequence (P21453 whole entry): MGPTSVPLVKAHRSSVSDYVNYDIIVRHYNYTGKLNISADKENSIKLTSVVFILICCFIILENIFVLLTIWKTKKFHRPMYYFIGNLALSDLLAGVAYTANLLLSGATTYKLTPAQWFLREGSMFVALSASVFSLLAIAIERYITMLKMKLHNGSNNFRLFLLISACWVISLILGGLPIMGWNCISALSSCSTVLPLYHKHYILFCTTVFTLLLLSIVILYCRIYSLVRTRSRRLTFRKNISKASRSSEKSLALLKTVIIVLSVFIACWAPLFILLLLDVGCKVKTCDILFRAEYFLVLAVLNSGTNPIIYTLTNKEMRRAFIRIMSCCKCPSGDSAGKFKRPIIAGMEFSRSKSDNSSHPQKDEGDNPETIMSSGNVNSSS

In the case of `O=C1CC[C@H](COc2cc(Cl)c(-c3noc(-c4cn5cc(C(F)(F)F)cc(Cl)c5n4)n3)cc2Cl)N1` [Example 3, (R)-5-((2,5-dichloro-4-(5-(8-chloro-6-(trifluoromethyl)imidazo[1,2-a]pyridin-2-yl)-1,2,4-oxadiazol-3-yl)phenoxy)methyl)pyrrolidin-2-one], in test [1], the lymphocyte count result is “less than 45 % of control”.
As to `CN1C[C@H](Oc2cc(Cl)c(-c3noc(-c4cn5cc(C(F)(F)F)cc(Cl)c5n4)n3)cc2Cl)CCC1=O` [Example 6, (R)-5-(2,5-dichloro-4-(5-(8-chloro-6-(trifluoromethyl)imidazo[1,2-a]pyridin-2-yl)-1,2,4-oxadiazol-3-yl)phenoxy)-1-methylpiperidin-2-one], the EC50 (usually the concentration giving half of the maximal effect) in test [2] is under 1000 nM. The lymphocyte count result in test [1] is reported as “less than 45 % of control”.
The matching figures for `O=C1CC[C@@H](COc2cc(Cl)c(-c3noc(-c4cn5cc(C(F)(F)F)cc(Cl)c5n4)n3)cc2Cl)N1` [Example 1, (S)-5-((2,5-dichloro-4-(5-(8-chloro-6-(trifluoromethyl)imidazo[1,2-a]pyridin-2-yl)-1,2,4-oxadiazol-3-yl)phenoxy)methyl)pyrrolidin-2-one]: under 1000 nM and “less than 45 % of control”.
Regarding `CN1C[C@@H](Oc2cc(Cl)c(-c3noc(-c4cn5cc(C(F)(F)F)cc(Cl)c5n4)n3)cc2Cl)CCC1=O` [Example 4, (S)-5-(2,5-dichloro-4-(5-(8-chloro-6-(trifluoromethyl)imidazo[1,2-a]pyridin-2-yl)-1,2,4-oxadiazol-3-yl)phenoxy)-1-methylpiperidin-2-one], the lymphocyte count entry in test [1] is reported as “less than 45 % of control”.
With `O=C1CC[C@@H](Oc2cc(Cl)c(-c3noc(-c4cn5cc(C(F)(F)F)cc(Cl)c5n4)n3)cc2Cl)CN1` [Example 5, (R)-5-(2,5-dichloro-4-(5-(8-chloro-6-(trifluoromethyl)imidazo[1,2-a]pyridin-2-yl)-1,2,4-oxadiazol-3-yl)phenoxy)piperidin-2-one], the EC50 in test [2] is under 1000 nM. Moreover, the lymphocyte count entry in test [1] is reported as “less than 45 % of control”.

The record behind these values is patent US10683291B2, “Heterocyclic compounds for the treatment of disease” (OPPILAN PHARMA LTD., priority 2015, dated 2020).
